From patent publication US6914045B2, “Glycopeptide antibiotics” (Wyeth Holdings Corporation, priority 2001, dated 2005)
≈ marks a conversion by molar mass, not a printed value.

Assays:
Assay in all cases: in vitro antibacterial evaluation, MIC by broth dilution
Format in all cases: cell-based
Enterococcus sp. = conditions: broth dilution, 18 hours at 35° C.; for MIC Enterococcus faecalis (ATCC 29212): strain ATCC 29212; for MIC Enterococcus faecalis (GC 2242): strain GC 2242; for MIC Enterococcus faecium (GC 2243): strain GC 2243; for MIC Enterococcus faecalis (GC 2691): strain GC 2691; for MIC Enterococcus faecalis (GC 3059): strain GC 3059; for MIC Enterococcus faecalis (GC 4552): strain GC 4552; for MIC Enterococcus faecalis (GC 4553): strain GC 4553; for MIC Enterococcus faecalis (GC 4554): strain GC 4554; for MIC Enterococcus faecium (GC 4556): strain GC 4556; for MIC Enterococcus faecium (GC 4557): strain GC 4557; for MIC Enterococcus avium (GC 4558): strain GC 4558; for MIC Enterococcus faecalis (GC 6189): strain GC 6189
Method: (§1) Methods for in vitro Antibacterial Evaluation (Table 1)
(§2) The minimum inhibitory concentration (MIC), the lowest concentration of the antibiotic which inhibits growth of the test organism, is determined by the broth dilution method using Muller-Hinton II […] (Baltimore Biological Laboratories) following the recommendations of the National Committee for Clinical Laboratory Standards [Methods for dilution antimicrobial susceptibility tests for bacteria that grow aerobically, approved standard M7-A2, National Committee for Clinical Laboratory Standards, Villanova, Pa.].
(§3) An inoculum level of 5×10^5 CFU/mL, and a range of antibiotic concentrations (64-0.06 μg/mL) is used. […] The test organisms include a spectrum of Gram-positive bacteria comprised of Staphylococcus sp., Streptococcus sp. and Enterococcus sp. These organisms include recent clinical isolates that are resistant to methicillin, penicillin and/or vancomycin.

Staphylococcus sp. = conditions: broth dilution, 18 hours at 35° C.; for MIC Staphylococcus aureus (ATCC 29213): strain ATCC 29213; for MIC Staphylococcus aureus (GC 1131): strain GC 1131; for MIC Staphylococcus aureus (GC 3051): strain GC 3051; for MIC Staphylococcus aureus (GC 3053): strain GC 3053; for MIC Staphylococcus aureus (GC 4541): strain GC 4541; for MIC Staphylococcus aureus (GC 4542): strain GC 4542; for MIC Staphylococcus aureus-SMITH (GC 4543): strain GC 4543; for MIC Staphylococcus aureus (GC 4544): strain GC 4544; for MIC Staphylococcus aureus (GC 4545): strain GC 4545; for MIC Staphylococcus haemolyticus (GC 4546): strain GC 4546; for MIC Coagulase Negative Staphylococcus (GC 4547): strain GC 4547; for MIC Coagulase Negative Staphylococcus (GC 4548): strain GC 4548; for MIC Coagulase Negative Staphylococcus (GC 4549): strain GC 4549; for MIC Coagulase Negative Staphylococcus (GC 4551): strain GC 4551; for MIC Coagulase Negative Staphylococcus (GC 6257): strain GC 6257
Method: as §1, §2, §3

Streptococcus sp. = conditions: broth dilution, 18 hours at 35° C.; for MIC Streptococcus pneumoniae (ATCC 6301): strain ATCC 6301; for MIC Streptococcus pneumoniae (GC 1894): strain GC 1894; for MIC Streptococcus pyogenes (GC 4563): strain GC 4563; for MIC Streptococcus agalactiae (GC 4564): strain GC 4564; for MIC Streptococcus pneumoniae (GC 4565): strain GC 4565
Method: as §1, §2, §3

Escherichia coli = conditions: broth dilution, 18 hours at 35° C.; for MIC Escherichia coli (ATCC 25922): strain ATCC 25922; for MIC Escherichia coli (GC 4559): strain GC 4559; for MIC Escherichia coli (GC 4560): strain GC 4560
Outline: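 Broth dilution MIC per NCCLS M7-A2 in Mueller-Hinton II medium, inoculum 5×10^5 CFU/mL, antibiotic range 64-0.06 μg/mL. MIC taken as lowest concentration inhibiting growth.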

MIC Enterococcus faecalis (ATCC 29212) (Enterococcus sp.) [µg/mL]	MIC Enterococcus faecalis (GC 2242) (Enterococcus sp.) [µg/mL]	MIC Enterococcus faecium (GC 2243) (Enterococcus sp.) [µg/mL]	MIC Enterococcus faecalis (GC 2691) (Enterococcus sp.) [µg/mL]	MIC Enterococcus faecalis (GC 3059) (Enterococcus sp.) [µg/mL]	MIC Enterococcus faecalis (GC 4552) (Enterococcus sp.) [µg/mL]	MIC Enterococcus faecalis (GC 4553) (Enterococcus sp.) [µg/mL]	MIC Enterococcus faecalis (GC 4554) (Enterococcus sp.) [µg/mL]	MIC Enterococcus faecium (GC 4556) (Enterococcus sp.) [µg/mL]	MIC Enterococcus faecium (GC 4557) (Enterococcus sp.) [µg/mL]	MIC Enterococcus avium (GC 4558) (Enterococcus sp.) [µg/mL]	MIC Enterococcus faecalis (GC 6189) (Enterococcus sp.) [µg/mL]	MIC Staphylococcus aureus (ATCC 29213) (Staphylococcus sp.) [µg/mL]	MIC Staphylococcus aureus (GC 1131) (Staphylococcus sp.) [µg/mL]	MIC Staphylococcus aureus (GC 3051) (Staphylococcus sp.) [µg/mL]	MIC Staphylococcus aureus (GC 3053) (Staphylococcus sp.) [µg/mL]	MIC Staphylococcus aureus (GC 4541) (Staphylococcus sp.) [µg/mL]	MIC Staphylococcus aureus (GC 4542) (Staphylococcus sp.) [µg/mL]	MIC Staphylococcus aureus-SMITH (GC 4543) (Staphylococcus sp.) [µg/mL]	MIC Staphylococcus aureus (GC 4544) (Staphylococcus sp.) [µg/mL]	Structure (SMILES)	also measured
32 (≈ 28.6 µM)	64 (≈ 57.3 µM)	32 (≈ 28.6 µM)	32 (≈ 28.6 µM)	64 (≈ 57.3 µM)	64 (≈ 57.3 µM)	32 (≈ 28.6 µM)	64 (≈ 57.3 µM)	64 (≈ 57.3 µM)	8 (≈ 7.16 µM)	32 (≈ 28.6 µM)	32 (≈ 28.6 µM)	32 (≈ 28.6 µM)	16 (≈ 14.3 µM)	16 (≈ 14.3 µM)	16 (≈ 14.3 µM)	32 (≈ 28.6 µM)	16 (≈ 14.3 µM)	16 (≈ 14.3 µM)	16 (≈ 14.3 µM)	CC(c1ccccc1)C1NC(=O)CNC(=O)C(CO)NC(=O)C(C(O)C2CNC(=N)N2C2OC(CO)C(O)C(O)C2O)NC(=O)C(C(O)C2CNC(=N)N2)NC(=O)C(Cc2ccc3oc(-c4cccc([N+](=O)[O-])c4)nc3c2)NC1=O (stereo not drawn) [Example 26, Cyclo[3-[2-(3-nitrophenyl)-1,3-benzoxazol-5-yl)alanyl-3-(2-iminoimidazolidin-4-yl)seryl-3-(3-hexopyranosyl-2-iminoimidazolidin-4-yl)serylserylglycyl-β-methylphenylalanyl]]	MIC Staphylococcus aureus (GC 4545) (Staphylococcus sp.): 32 µg/mL (≈ 28.6 µM); MIC Staphylococcus haemolyticus (GC 4546) (Staphylococcus sp.): 4 µg/mL (≈ 3.58 µM); MIC Coagulase Negative Staphylococcus (GC 4547) (Staphylococcus sp.): 8 µg/mL (≈ 7.16 µM); MIC Coagulase Negative Staphylococcus (GC 4548) (Staphylococcus sp.): 16 µg/mL (≈ 14.3 µM); MIC Coagulase Negative Staphylococcus (GC 4549) (Staphylococcus sp.): 4 µg/mL (≈ 3.58 µM); MIC Coagulase Negative Staphylococcus (GC 4551) (Staphylococcus sp.): 16 µg/mL (≈ 14.3 µM); MIC Coagulase Negative Staphylococcus (GC 6257) (Staphylococcus sp.): 4 µg/mL (≈ 3.58 µM); MIC Streptococcus pneumoniae (ATCC 6301) (Streptococcus sp.): 32 µg/mL (≈ 28.6 µM); MIC Streptococcus pneumoniae (GC 1894) (Streptococcus sp.): 16 µg/mL (≈ 14.3 µM); MIC Streptococcus pyogenes (GC 4563) (Streptococcus sp.): 8 µg/mL (≈ 7.16 µM); MIC Streptococcus agalactiae (GC 4564) (Streptococcus sp.): 16 µg/mL (≈ 14.3 µM); MIC Streptococcus pneumoniae (GC 4565) (Streptococcus sp.): 32 µg/mL (≈ 28.6 µM); MIC Escherichia coli (ATCC 25922) (Escherichia coli): 64 µg/mL (≈ 57.3 µM); MIC Escherichia coli (GC 4559) (Escherichia coli): 64 µg/mL (≈ 57.3 µM); MIC Escherichia coli (GC 4560) (Escherichia coli): 16 µg/mL (≈ 14.3 µM)
32 (≈ 27.8 µM)	32 (≈ 27.8 µM)	32 (≈ 27.8 µM)	32 (≈ 27.8 µM)	32 (≈ 27.8 µM)	64 (≈ 55.6 µM)	16 (≈ 13.9 µM)	32 (≈ 27.8 µM)	64 (≈ 55.6 µM)	8 (≈ 6.95 µM)	16 (≈ 13.9 µM)	32 (≈ 27.8 µM)	8 (≈ 6.95 µM)	16 (≈ 13.9 µM)	16 (≈ 13.9 µM)	8 (≈ 6.95 µM)	16 (≈ 13.9 µM)	8 (≈ 6.95 µM)	8 (≈ 6.95 µM)	8 (≈ 6.95 µM)	CC(c1ccccc1)C1NC(=O)CNC(=O)C(CO)NC(=O)C(C(O)C2CNC(=N)N2C2OC(CO)C(O)C(O)C2O)NC(=O)C(C(O)C2CNC(=N)N2)NC(=O)C(Cc2ccc3oc(-c4ccc(Br)cc4)nc3c2)NC1=O (stereo not drawn) [Example 27, Cyclo[3-[2-(4-bromophenyl)-1,3-benzoxazol-5-yl]alanyl-3-(2-iminoimidazolidin-4-yl)seryl-3-(3-hexopyranosyl-2-iminoimidazolidin-4-yl)serylserylglycyl-β-methylphenylalanyl]]	MIC Staphylococcus aureus (GC 4545) (Staphylococcus sp.): 8 µg/mL (≈ 6.95 µM); MIC Staphylococcus haemolyticus (GC 4546) (Staphylococcus sp.): 4 µg/mL (≈ 3.48 µM); MIC Coagulase Negative Staphylococcus (GC 4547) (Staphylococcus sp.): 8 µg/mL (≈ 6.95 µM); MIC Coagulase Negative Staphylococcus (GC 4548) (Staphylococcus sp.): 8 µg/mL (≈ 6.95 µM); MIC Coagulase Negative Staphylococcus (GC 4549) (Staphylococcus sp.): 8 µg/mL (≈ 6.95 µM); MIC Coagulase Negative Staphylococcus (GC 4551) (Staphylococcus sp.): 8 µg/mL (≈ 6.95 µM); MIC Coagulase Negative Staphylococcus (GC 6257) (Staphylococcus sp.): 4 µg/mL (≈ 3.48 µM); MIC Streptococcus pneumoniae (ATCC 6301) (Streptococcus sp.): 16 µg/mL (≈ 13.9 µM); MIC Streptococcus pneumoniae (GC 1894) (Streptococcus sp.): 32 µg/mL (≈ 27.8 µM); MIC Streptococcus pyogenes (GC 4563) (Streptococcus sp.): 8 µg/mL (≈ 6.95 µM); MIC Streptococcus agalactiae (GC 4564) (Streptococcus sp.): 32 µg/mL (≈ 27.8 µM); MIC Streptococcus pneumoniae (GC 4565) (Streptococcus sp.): 16 µg/mL (≈ 13.9 µM); MIC Escherichia coli (ATCC 25922) (Escherichia coli): 32 µg/mL (≈ 27.8 µM); MIC Escherichia coli (GC 4559) (Escherichia coli): 32 µg/mL (≈ 27.8 µM); MIC Escherichia coli (GC 4560) (Escherichia coli): 8 µg/mL (≈ 6.95 µM)
32 (≈ 28.7 µM)	32 (≈ 28.7 µM)	16 (≈ 14.3 µM)	32 (≈ 28.7 µM)	64 (≈ 57.4 µM)	64 (≈ 57.4 µM)	16 (≈ 14.3 µM)	32 (≈ 28.7 µM)	64 (≈ 57.4 µM)	8 (≈ 7.17 µM)	16 (≈ 14.3 µM)	32 (≈ 28.7 µM)	8 (≈ 7.17 µM)	8 (≈ 7.17 µM)	8 (≈ 7.17 µM)	8 (≈ 7.17 µM)	8 (≈ 7.17 µM)	8 (≈ 7.17 µM)	8 (≈ 7.17 µM)	8 (≈ 7.17 µM)	CC(c1ccccc1)C1NC(=O)CNC(=O)C(CO)NC(=O)C(C(O)C2CNC(=N)N2C2OC(CO)C(O)C(O)C2O)NC(=O)C(C(O)C2CNC(=N)N2)NC(=O)C(Cc2ccc3oc(-c4ccc(N(C)C)cc4)nc3c2)NC1=O (stereo not drawn) [Example 29, Cyclo[3-[2-[4-(dimethylamino)phenyl]-1,3-benzoxazol-5-yl]alanyl-3-(2-iminoimidazolidin-4-yl)-seryl-3-(3-hexopyranosyl-2-iminoimidazolidin-4-yl)serylserylglycyl-β-methylphenyl-alanyl]]	MIC Staphylococcus aureus (GC 4545) (Staphylococcus sp.): 8 µg/mL (≈ 7.17 µM); MIC Staphylococcus haemolyticus (GC 4546) (Staphylococcus sp.): 4 µg/mL (≈ 3.59 µM); MIC Coagulase Negative Staphylococcus (GC 4547) (Staphylococcus sp.): 4 µg/mL (≈ 3.59 µM); MIC Coagulase Negative Staphylococcus (GC 4548) (Staphylococcus sp.): 4 µg/mL (≈ 3.59 µM); MIC Coagulase Negative Staphylococcus (GC 4549) (Staphylococcus sp.): 2 µg/mL (≈ 1.79 µM); MIC Coagulase Negative Staphylococcus (GC 4551) (Staphylococcus sp.): 8 µg/mL (≈ 7.17 µM); MIC Coagulase Negative Staphylococcus (GC 6257) (Staphylococcus sp.): 4 µg/mL (≈ 3.59 µM); MIC Streptococcus pneumoniae (ATCC 6301) (Streptococcus sp.): 32 µg/mL (≈ 28.7 µM); MIC Streptococcus pneumoniae (GC 1894) (Streptococcus sp.): 32 µg/mL (≈ 28.7 µM); MIC Streptococcus pyogenes (GC 4563) (Streptococcus sp.): 16 µg/mL (≈ 14.3 µM); MIC Streptococcus agalactiae (GC 4564) (Streptococcus sp.): 32 µg/mL (≈ 28.7 µM); MIC Streptococcus pneumoniae (GC 4565) (Streptococcus sp.): 32 µg/mL (≈ 28.7 µM); MIC Escherichia coli (ATCC 25922) (Escherichia coli): 16 µg/mL (≈ 14.3 µM); MIC Escherichia coli (GC 4559) (Escherichia coli): 16 µg/mL (≈ 14.3 µM); MIC Escherichia coli (GC 4560) (Escherichia coli): 4 µg/mL (≈ 3.59 µM)
